We go through 22 molecules from patent publication US9777002B2, “Inhibitors of the renal outer medullary potassium channel” (Merck Sharp & Dohme Corp., priority 2012, dated 2017).

In this assay the target is T1, hROMK (hKir1.1) (Homo sapiens, UniProt P48048).
T1 construct: expressed in transfected cells
T1 sequence (P48048 1-391): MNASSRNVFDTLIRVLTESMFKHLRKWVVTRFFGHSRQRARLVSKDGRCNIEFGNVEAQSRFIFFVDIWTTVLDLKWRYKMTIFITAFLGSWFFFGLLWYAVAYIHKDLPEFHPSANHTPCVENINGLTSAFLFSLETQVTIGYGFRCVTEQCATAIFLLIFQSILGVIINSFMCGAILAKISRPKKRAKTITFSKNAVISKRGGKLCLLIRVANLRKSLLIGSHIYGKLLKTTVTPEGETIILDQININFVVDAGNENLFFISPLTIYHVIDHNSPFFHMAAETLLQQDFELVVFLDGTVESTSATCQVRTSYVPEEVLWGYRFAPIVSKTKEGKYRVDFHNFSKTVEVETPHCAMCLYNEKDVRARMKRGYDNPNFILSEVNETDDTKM
Kind of assay: Thallium Flux Assay. The format is cell-based. Particulars: HEK293 cells stably expressing hROMK (hKir1.1). An outline of the steps: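 HEK293 cells stably expressing hROMK were loaded with FluxOR dye for 90 min, then incubated with compound in probenecid assay buffer plus 0.3 mM ouabain, pH 7.4, for 30 min at 23-25 °C. Flux was triggered with 3 mM thallium/0.3 mM potassium (final) and read on FLIPR-Tetra for ~10 min. IC50 was calculated against the signal blocked by 3 μM control inhibitor.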

For the molecule `Cc1c([C@@H](O)CN2CCC(NC(=O)c3ccc4nonc4c3)CC2)ccc2c1COC2=O` [Example 66, (R)-N-(1-(2-Hydroxy-2-(4-methyl-1-oxo-1,3-dihydroisobenzofuran-5-yl)ethyl)piperidin-4-yl)benzo[c][1,2,5]oxadiazole-5-carboxamide], half-maximal inhibition (IC50) required 220 nM.

`Cc1c([C@@H](O)CN2CCCC(C)(CNC(=O)c3ccc(-n4cnnn4)cn3)C2)ccc2c1COC2=O` (stereo partly drawn) [Example 67, N-((1-((R)-2-Hydroxy-2-(4-methyl-1-oxo-1,3-dihydroisobenzofuran-5-yl)ethyl)-3-methylpiperidin-3-yl)methyl)-5-(1H-tetrazol-1-yl)picolinamide] yielded an IC50 of 360 nM.

`Cc1c([C@@H](O)CN2CCC(CNC(=O)c3ccc(-n4cnnn4)cn3)(c3ccccc3)C2)ccc2c1COC2=O` (stereo partly drawn) [Example 68, N-((1-((R)-2-Hydroxy-2-(4-methyl-1-oxo-1,3-dihydroisobenzofuran-5-yl)ethyl)-3-phenylpyrrolidin-3-yl)methyl)-5-(1H-tetrazol-1-yl)picolinamide] had an IC50 of 630 nM.

Molecule `Cc1c([C@@H](O)CN2CCC(C3(NC(=O)c4ccc(-n5cnnn5)cn4)CCC3)C2)ccc2c1COC2=O` (stereo partly drawn) [Example 70, N-(1-(1-((R)-2-Hydroxy-2-(4-methyl-1-oxo-1,3-dihydroisobenzofuran-5-yl)ethyl)pyrrolidin-3-yl)cyclobutyl)-5-(1H-tetrazol-1-yl)picolinamide] registered an IC50 of 760 nM.

Take `Cc1c([C@@H](O)CN2CCC(C)(NC(=O)c3ccc(-n4cnnn4)nn3)CC2)ccc2c1COC2=O` [Example 71, (R)-N-(1-(2-Hydroxy-2-(4-methyl-1-oxo-1,3-dihydroisobenzofuran-5-yl)ethyl)-4-methylpiperidin-4-yl)-6-(1H-tetrazol-1-yl)pyridazine-3-carboxamide]: 280 nM corresponded to half-maximal inhibition (IC50). This IC50 lies about 2.7-fold lower than the previous one.

`Cc1c([C@@H](O)CN2CCC(C)(NC(=O)c3cnc(-n4cnnn4)cn3)CC2)ccc2c1COC2=O` [Example 72, (R)-N-(1-(2-Hydroxy-2-(4-methyl-1-oxo-1,3-dihydroisobenzofuran-5-yl)ethyl)-4-methylpiperidin-4-yl)-5-(1H-tetrazol-1-yl)pyrazine-2-carboxamide]: the IC50 was 80 nM. Against the preceding molecule, the IC50 is about 3.5-fold lower.

For the molecule `Cc1c([C@@H](O)CN2CCC(NC(=O)c3ccc(-n4cccn4)nc3)CC2)ccc2c1COC2=O` [Example 73, (R)-N-(1-(2-Hydroxy-2-(4-methyl-1-oxo-1,3-dihydroisobenzofuran-5-yl)ethyl)piperidin-4-yl)-6-(1H-pyrazol-1-yl)nicotinamide], the IC50 amounted to 270 nM.

With `Cc1c([C@@H](O)CN2CCC(NC(=O)c3ccc(-n4cncn4)cc3)CC2)ccc2c1COC2=O` [Example 74, (R)-N-(1-(2-Hydroxy-2-(4-methyl-1-oxo-1,3-dihydroisobenzofuran-5-yl)ethyl)piperidin-4-yl)-4-(1H-1,2,4-triazol-1-yl)benzamide], 630 nM corresponded to half-maximal inhibition (IC50).

For `Cc1c([C@@H](O)CN2CCC(NC(=O)c3ccc(-c4nccs4)cc3)CC2)ccc2c1COC2=O` [Example 75, (R)-N-(1-(2-Hydroxy-2-(4-methyl-1-oxo-1,3-dihydroisobenzofuran-5-yl)ethyl)piperidin-4-yl)-4-(thiazol-2-yl)benzamide], the IC50 is 390 nM.

Take `Cc1c([C@@H](O)CN2C3CCC2CC(NC(=O)c2ccc(-n4cnnn4)cn2)C3)ccc2c1COC2=O` (stereo partly drawn) [Example 76, N-(8-((R)-2-Hydroxy-2-(4-methyl-1-oxo-1,3-dihydroisobenzofuran-5-yl)ethyl)-8-azabicyclo[3.2.1]octan-3-yl)-5-(1H-tetrazol-1-yl)picolinamide]: inhibition was half-maximal at 430 nM (IC50). This IC50 and that of the molecule before are within 1.5-fold of each other.

`Cc1c([C@@H](O)CN2CCC(C)(NC(=O)c3ccc4nonc4c3)CC2)ccc2c1COC2=O` [Example 77, (R)-N-(1-(2-Hydroxy-2-(4-methyl-1-oxo-1,3-dihydroisobenzofuran-5-yl)ethyl)-4-methylpiperidin-4-yl)benzo[c][1,2,5]oxadiazole-5-carboxamide] had an IC50 of 530 nM.

As for `Cc1cc(C(=O)NC2CCN(C[C@H](O)c3ccc4c(c3C)COC4=O)CC2)ccc1-n1cnnn1` [Example 78, (R)-N-(1-(2-Hydroxy-2-(4-methyl-1-oxo-1,3-dihydroisobenzofuran-5-yl)ethyl)piperidin-4-yl)-3-methyl-4-(1H-tetrazol-1-yl)benzamide], the IC50 stood at 560 nM. This IC50 and that of the molecule before are within 1.5-fold of each other.

For `Cc1c([C@@H](O)CN2CCC(NC(=O)c3ccc(-n4cnnn4)c4ncccc34)CC2)ccc2c1COC2=O` [Example 79, (R)-N-(1-(2-Hydroxy-2-(4-methyl-1-oxo-1,3-dihydroisobenzofuran-5-yl)ethyl)piperidin-4-yl)-8-(1H-tetrazol-1-yl)quinoline-5-carboxamide], inhibition was half-maximal at 370 nM (IC50).

`Cc1c([C@@H](O)CN2CCCC(C(C)(C)NC(=O)c3ccc(-n4cnnn4)nc3)C2)ccc2c1COC2=O` (stereo partly drawn) [Example 80, N-(2-(1-((R)-2-Hydroxy-2-(4-methyl-1-oxo-1,3-dihydroisobenzofuran-5-yl)ethyl)piperidin-3-yl)propan-2-yl)-6-(1H-tetrazol-1-yl)nicotinamide] returned an IC50 of 970 nM.

As to `Cc1c([C@@H](O)CN2C3CCC2CC(NC(=O)c2ccc(-n4cnnn4)nc2)C3)ccc2c1COC2=O` (stereo partly drawn) [Example 82, N-(8-((R)-2-Hydroxy-2-(4-methyl-1-oxo-1,3-dihydroisobenzofuran-5-yl)ethyl)-8-azabicyclo[3.2.1]octan-3-yl)-6-(1H-tetrazol-1-yl)nicotinamide], inhibition was half-maximal at 250 nM (IC50). This IC50 lies about 3.9-fold lower than the previous one.

As to `Cc1c([C@@H](O)CN2CCCC(C)(CNC(=O)c3ccc(-n4cnnn4)nc3)C2)ccc2c1COC2=O` (stereo partly drawn) [Example 83, N-((1-((R)-2-Hydroxy-2-(4-methyl-1-oxo-1,3-dihydroisobenzofuran-5-yl)ethyl)-3-methylpiperidin-3-yl)methyl)-6-(1H-tetrazol-1-yl)nicotinamide], the IC50 stood at 720 nM.

As to `Cc1c([C@@H](O)CN2CCC(C)(CNC(=O)c3ccc(-n4cnnn4)nc3)C2)ccc2c1COC2=O` (stereo partly drawn) [Example 84, N-((1-((R)-2-Hydroxy-2-(4-methyl-1-oxo-1,3-dihydroisobenzofuran-5-yl)ethyl)-3-methylpyrrolidin-3-yl)methyl)-6-(1H-tetrazol-1-yl)nicotinamide], the midpoint of inhibition, the IC50, lay at 190 nM. This IC50 is about 3.8-fold lower than that of the molecule before.

In turn, `Cc1cc(C(=O)NCC2CCN(C[C@H](O)c3ccc4c(c3C)COC4=O)C2)ncc1-n1cnnn1` (stereo partly drawn) [Example 85, N-((1-((R)-2-Hydroxy-2-(4-methyl-1-oxo-1,3-dihydroisobenzofuran-5-yl)ethyl)pyrrolidin-3-yl)methyl)-4-methyl-5-(1H-tetrazol-1-yl)picolinamide] returned an IC50 of 370 nM. Against the preceding molecule, the IC50 is about 1.9-fold higher.

For the molecule `Cc1c([C@@H](O)CN2CCC(CNC(=O)c3ccc(-n4cnnn4)cn3)C2)ccc2c1COC2=O` (stereo partly drawn) [Example 86, N-((1-((R)-2-Hydroxy-2-(4-methyl-1-oxo-1,3-dihydroisobenzofuran-5-yl)ethyl)pyrrolidin-3-yl)methyl)-5-(1H-tetrazol-1-yl)picolinamide], the IC50 was 980 nM.

Molecule `Cc1c([C@@H](O)CN2CCC(N3Cc4cc([N+](=O)[O-])ccc4C3=O)CC2)ccc2c1COC2=O` [Example 88, (R)-2-(1-(2-Hydroxy-2-(4-methyl-1-oxo-1,3-dihydroisobenzofuran-5-yl)ethyl)piperidin-4-yl)-5-nitroisoindolin-1-one] gave an IC50 of 30 nM.

Turning to `Cc1c([C@@H](O)CN2CCC(CNC(=O)c3ccc4nonc4c3)C2)ccc2c1COC2=O` (stereo partly drawn) [Example 89, N-((1-((R)-2-Hydroxy-2-(4-methyl-1-oxo-1,3-dihydroisobenzofuran-5-yl)ethyl)pyrrolidin-3-yl)methyl)benzo[c][1,2,5]oxadiazole-5-carboxamide], the IC50 came to 260 nM.

Molecule `Cc1c([C@@H](O)CN2CCC(N3Cc4cc(-n5cnnn5)ccc4C3=O)CC2)ccc2c1COC2=O` [Example 91, (R)-2-(1-(2-Hydroxy-2-(4-methyl-1-oxo-1,3-dihydroisobenzofuran-5-yl)ethyl)piperidin-4-yl)-5-(1H-tetrazol-1-yl)isoindolin-1-one] registered an IC50 of 130 nM.
